Assay results as given in patent US7598255B2 (Janssen Pharmaceutica NV, priority 2005, dated 2009).
Where a name gives a salt, the structure may show the parent alone.

Key:
5-HT2A receptor = 5-HT2A receptor (Homo sapiens, UniProt P28223); assay: Affinity for 5-HT2A receptor binding sites, radioligand binding with [3H]ketanserin; conditions: read-out: Ki 5-HT2A, rat cortex membranes (assay 2) or NIH3T3 h5-HT2A membranes (assay 3), table does not say which
Method: (§1) Sigmoidal inhibition curves were generated and fitted by nonlinear regression analysis (GraphPad Prism).
The affinity of the compounds for the rat 5-HT2A receptor was evaluated by competitive radioligand binding assay using [^3H]ketanserine as the radioligand. […] Brain tissue (rat cortex) was homogenized in 20 volumes per wet weight tissue of Tris-HCl buffer (50 mM, pH 7.4). The total membrane fraction was collected by centrifugation and washed by subsequent centrifugation runs (25 min at 25,000 g at 4° C.). Membranes were re-suspended in Tris-HCl buffer (50 mM, pH 7.4) containing 1 nM [^3H]ketanserin. Non-specific binding was estimated in the presence of 10 μM risperidone. The incubation was terminated by rapid filtration over Whatman GF/B filters pre-soaked in 0.1% polyethylenimine, and one washing step with 1 mL ice-cold Tris-HCl buffer, pH 7.4.

rat 5-HT7a receptor = rat 5-HT7a receptor (Rattus norvegicus, UniProt P32305); assay: Affinity for 5-HT7 receptor binding sites, radioligand binding with [3H]5-CT; conditions: membranes of HEK-293 cells with rat 5-HT7a, 1 nM [3H]5-CT
Method: The affinity of the compounds described in this invention for the 5-HT7 receptor binding site was evaluated by single competition radioligand binding assay. The assay was performed on membranes prepared from HEK-293 cells that had been subjected to stable transfection with the rat 5-HT7a receptor (GB: NM022938). Cells were scraped from the culture plates, suspended in Tris-HCl 50 mM pH 7.5 and collected through centrifugation (1000 rpm for 5 min). The cell pellets were homogenized (Polytron, 15 s, setting 5) in 50 mM Tris-HCl (pH 7.5), 5 mM EDTA. Following centrifugation (15,000 rpm for 25 min), membranes (135 μg protein/mL) were resuspended in the same buffer and incubated for 60 min at RT with 1 nM [^3H]5-CT in the presence of increasing concentration of test compounds. Nonspecific binding was defined in the presence of 10 μM 5-HT. Incubation was stopped by rapid filtration using the cell harvester (Packard). Radioactivity was counted in a TopCount-NXT (Packard). Experiments were conducted in triplicate.

5-HT2B receptor = 5-HT2B receptor (Homo sapiens, UniProt P41595); assay: Affinity for 5HT2 receptor binding sites, h5-HT2B, [3H]mesulergine; conditions: CHO h5-HT2B membranes
Method: as §1
Receptor binding was performed using the human recombinant 5-HT2A (GB: X57830), 5-HT2B (GB: Z36748) and 5-HT2C (GB: M81778) receptors. The affinity of the compounds for the 3 different human 5-HT2 receptor subtypes was evaluated by competitive radioligand binding assays using [^3H]ketanserin (h5-HT2A) or [^3H]mesulergine (h5-HT2B and h5-HT2C). The assays were performed on membranes prepared from NIH3T3 stably transfected with h5-HT2A or CHO stably transfected with h5-HT2B and h5-HT2C.

[1] = target: T1, human recombinant 5-HT2C receptor (Homo sapiens, UniProt P28335); assay: Affinity for 5HT2 receptor binding sites, h5-HT2C, [3H]mesulergine; conditions: CHO h5-HT2C membranes
T1 sequence (P28335 33-458): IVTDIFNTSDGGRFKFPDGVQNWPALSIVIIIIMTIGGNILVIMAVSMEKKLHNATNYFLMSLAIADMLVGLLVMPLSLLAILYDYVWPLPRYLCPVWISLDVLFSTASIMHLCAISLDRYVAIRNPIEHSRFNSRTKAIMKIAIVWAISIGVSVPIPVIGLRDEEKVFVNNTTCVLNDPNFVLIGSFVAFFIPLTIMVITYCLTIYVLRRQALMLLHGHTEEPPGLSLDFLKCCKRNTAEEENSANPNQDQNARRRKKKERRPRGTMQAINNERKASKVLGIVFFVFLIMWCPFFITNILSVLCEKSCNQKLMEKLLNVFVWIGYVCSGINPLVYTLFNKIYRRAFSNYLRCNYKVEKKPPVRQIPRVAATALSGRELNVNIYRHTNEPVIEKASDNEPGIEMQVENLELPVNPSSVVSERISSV

Sequence of 5-HT2B receptor (P41595 whole entry): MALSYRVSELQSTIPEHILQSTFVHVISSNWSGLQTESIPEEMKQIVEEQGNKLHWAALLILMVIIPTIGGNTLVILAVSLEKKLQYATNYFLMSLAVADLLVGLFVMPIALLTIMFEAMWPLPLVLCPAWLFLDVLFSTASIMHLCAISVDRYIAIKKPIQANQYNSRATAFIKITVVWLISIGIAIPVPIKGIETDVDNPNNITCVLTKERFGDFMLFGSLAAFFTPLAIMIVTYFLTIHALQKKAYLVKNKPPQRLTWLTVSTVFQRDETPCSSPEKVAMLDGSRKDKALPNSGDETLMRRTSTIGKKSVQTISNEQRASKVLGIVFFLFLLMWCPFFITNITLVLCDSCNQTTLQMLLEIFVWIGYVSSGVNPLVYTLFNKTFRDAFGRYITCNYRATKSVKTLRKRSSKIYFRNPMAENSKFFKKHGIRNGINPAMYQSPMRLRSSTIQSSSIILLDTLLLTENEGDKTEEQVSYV
Sequence of rat 5-HT7a receptor (P32305 whole entry): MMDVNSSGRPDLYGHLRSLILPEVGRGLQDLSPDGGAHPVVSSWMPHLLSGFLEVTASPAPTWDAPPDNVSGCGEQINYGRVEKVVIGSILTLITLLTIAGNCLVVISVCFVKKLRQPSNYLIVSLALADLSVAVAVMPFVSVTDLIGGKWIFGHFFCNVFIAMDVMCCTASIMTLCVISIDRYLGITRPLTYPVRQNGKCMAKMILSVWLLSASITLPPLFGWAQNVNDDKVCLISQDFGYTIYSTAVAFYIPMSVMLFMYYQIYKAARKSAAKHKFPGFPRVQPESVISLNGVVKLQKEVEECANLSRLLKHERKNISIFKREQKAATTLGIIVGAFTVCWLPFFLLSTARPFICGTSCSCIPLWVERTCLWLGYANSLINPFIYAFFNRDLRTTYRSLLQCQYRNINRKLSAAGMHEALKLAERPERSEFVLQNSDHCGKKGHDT

| SMILES | Ki (5-HT2A receptor) [µM] | Ki (rat 5-HT7a receptor) [µM] | Ki (5-HT2B receptor) [µM] | Ki [1] [µM] |
| --- | --- | --- | --- | --- |
| CC(C)c1nc(-c2ccc(C(F)(F)F)cc2)c2c(n1)C(C)CNC2 (stereo not shown) [Example 104, 2-Isopropyl-8-methyl-4-(4-trifluoromethyl-phenyl)-5,6,7,8-tetrahydro-pyrido[4,3-d]pyrimidine] | 0.7 | > 10 | 0.5 | 3 |
| Fc1cccc(-c2nc(Cc3ccccc3)nc3c2CNCC3)c1 [Example 12, 2-Benzyl-4-(3-fluoro-phenyl)-5,6,7,8-tetrahydro-pyrido[4,3-d]pyrimidine] | 0.3 | > 10 | > 10 | 5 |
| N#Cc1ccc(-c2nc(Cc3ccc(F)cc3)nc3c2CNCC3)cc1 [Example 16, 4-[2-(4-Fluoro-benzyl)-5,6,7,8-tetrahydro-pyrido[4,3-d]pyrimidin-4-yl]-benzonitrile] | 2 | > 10 | > 10 | > 10 |
| CC(C)c1nc(-c2ccc(Cl)cc2)c2c(n1)C(C)CN(Cc1ccccc1)C2 (stereo not shown) [Example 97, 6-Benzyl-4-(4-chloro-phenyl)-2-isopropyl-8-methyl-5,6,7,8-tetrahydro-pyrido[4,3-d]pyrimidine] | > 10 | > 10 | > 10 | > 10 |
| CC(C)c1nc(-c2ccccc2)c2c(n1)C(C)CN(Cc1ccccc1)C2 (stereo not shown) [Example 95, 6-Benzyl-2-isopropyl-8-methyl-4-phenyl-5,6,7,8-tetrahydro-pyrido[4,3-d]pyrimidine] | 2 | > 10 | > 10 | > 10 |
| Cc1cc(-c2nc(C(C)C)nc3c2CCN(Cc2ccccc2)C3)cs1 [Example 86, 7-Benzyl-2-isopropyl-4-(5-methyl-thiophen-3-yl)-5,6,7,8-tetrahydro-pyrido[3,4-d]pyrimidine hydrochloride] | 0.1 | 9 | 4.1 | > 10 |
| Cc1ccc(-c2nc(Cc3ccc(F)cc3)ncc2CN(C)C)cc1 [Example 116, [2-(4-Fluoro-benzyl)-4-p-tolyl-pyrimidin-5-ylmethyl]-dimethyl-amine] | 2 | > 10 | > 10 | > 10 |
| CN1CCc2nc(Cc3ccc(F)cc3)nc(-c3ccc(C#N)cc3)c2C1 [Example 15, 4-[2-(4-Fluoro-benzyl)-6-methyl-5,6,7,8-tetrahydro-pyrido[4,3-d]pyrimidin-4-yl]-benzonitrile] | 1 | > 10 | > 10 | > 10 |
| CC(C)c1nc2c(c(-c3ccc(F)cc3)n1)CCN(Cc1ccccc1)C2 [Example 74, 7-Benzyl-4-(4-fluoro-phenyl)-2-isopropyl-5,6,7,8-tetrahydro-pyrido[3,4-d]pyrimidine] | 0.047 | > 10 | 1.9 | > 10 |
| CC(C)c1nc2c(c(-c3ccccc3)n1)CCN(Cc1ccccc1)C2 [Example 75, 7-Benzyl-2-isopropyl-4-phenyl-5,6,7,8-tetrahydro-pyrido[3,4-d]pyrimidine] | 0.07 | 5 | 3 | > 10 |
| Cc1ccc(-c2cc(CN(C)C)nc(Cc3ccccc3)n2)cc1 [Example 112, (2-Benzyl-6-p-tolyl-pyrimidin-4-ylmethyl)-dimethyl-amine] | 0.13 | > 10 | > 10 | > 10 |
| CC(C)c1nc2c(c(-c3ccccc3F)n1)CNCC2 [Example 26, 4-(2-Fluoro-phenyl)-2-isopropyl-5,6,7,8-tetrahydro-pyrido[4,3-d]pyrimidine] | 0.3 | > 10 | > 10 | > 10 |
| CC(C)c1nc2c(c(-c3ccc(C(F)(F)F)cc3)n1)CNCC2 [Example 32, 2-Isopropyl-4-(4-trifluoromethyl-phenyl)-5,6,7,8-tetrahydro-pyrido[4,3-d]pyrimidine] | 2 | > 10 | > 10 | > 10 |
